# In patent US20240417369A1, “RXFP1 AGONISTS” (BRISTOL-MYERS SQUIBB COMPANY, priority 2021, published 2024):
# Tests used:
# human RXFP1 = molecular target: T1, human RXFP1 (Homo sapiens, UniProt Q9HBX9); experiment: cAMP hRXFP1 HEK293 Assay; assay type: cell-based; conditions: HEK293 cells stably expressing human RXFP1; 30 min at room temperature; HTRF cAMP
# T1 construct: expressed in transfected cells
# T1 sequence (Q9HBX9 1-757): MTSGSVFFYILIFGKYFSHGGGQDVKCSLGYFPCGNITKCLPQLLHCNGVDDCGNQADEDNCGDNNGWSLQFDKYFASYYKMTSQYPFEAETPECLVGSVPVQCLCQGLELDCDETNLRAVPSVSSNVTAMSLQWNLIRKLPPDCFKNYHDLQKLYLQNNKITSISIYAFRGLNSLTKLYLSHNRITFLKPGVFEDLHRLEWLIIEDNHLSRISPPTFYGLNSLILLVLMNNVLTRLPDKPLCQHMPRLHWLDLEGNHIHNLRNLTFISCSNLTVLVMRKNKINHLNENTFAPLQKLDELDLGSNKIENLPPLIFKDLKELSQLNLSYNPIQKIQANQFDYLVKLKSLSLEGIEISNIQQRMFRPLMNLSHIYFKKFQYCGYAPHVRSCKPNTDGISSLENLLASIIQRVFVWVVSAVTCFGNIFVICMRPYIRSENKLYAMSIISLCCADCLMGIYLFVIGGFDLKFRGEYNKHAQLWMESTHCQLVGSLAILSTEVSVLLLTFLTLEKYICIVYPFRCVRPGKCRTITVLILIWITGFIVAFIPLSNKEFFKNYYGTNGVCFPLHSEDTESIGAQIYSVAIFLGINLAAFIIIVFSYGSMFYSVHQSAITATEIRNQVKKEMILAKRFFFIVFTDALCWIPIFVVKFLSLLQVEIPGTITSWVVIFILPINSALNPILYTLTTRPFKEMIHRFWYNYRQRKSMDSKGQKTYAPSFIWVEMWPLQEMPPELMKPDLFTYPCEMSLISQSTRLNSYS
# Protocol: RXFP1 Cyclic Adenosine Monophosphate (cAMP) Assays. Human embryonic kidney cells 293 (HEK293) cells and HEK293 cells stably expressing human RXFP1, were cultured in MEM medium supplemented with 10% qualified FBS, and 300 μg/ml hygromycin (Life Technologies). Cells were dissociated and suspended in assay buffer. The assay buffer was HBSS buffer (with calcium and magnesium) containing 20 mM HEPES. 0.05% BSA, and 0.5 mM IBMX. Cells (3000 cells per well, except 1500 cell per well for HEK293 cells stably expressing human RXFP1) were added to 384-well Proxiplates (Perkin-Elmer). Cells were immediately treated with test compounds in DMSO (2% final) at final concentrations in the range of 0.010 nM to 50 μM. Cells were incubated for 30 min at room temperature. The level of intracellular cAMP was determined using the HTRF HiRange cAMP assay reagent kit (Cisbio) according to manufacturer's instructions. Solutions of cryptate conjugated anti-cAMP and d2 fluorophore-labelled cAMP were made in a supplied lysis buffer separately. Upon completion of the reaction, the cells were lysed with equal volume of the d2-cAMP solution and anti-cAMP solution. After a 1 h room temperature incubation, time-resolved fluorescence intensity was measured using the Envision (Perkin-Elmer) at 400 nm excitation and dual emission at 590 nm and 665 nm. A calibration curve was constructed with an external cAMP standard at concentrations ranging from 2.7 μM to 0.1 μM by plotting the fluorescent intensity ratio from 665 nm emission to the intensity from the 590 nm emission against cAMP concentrations. The potency and activity of a compound to inhibit cAMP production was then determined by fitting to a 4-parametric logistic equation from a plot of cAMP level versus compound concentrations.
# The examples disclosed below were tested in the human RXFP1 (hRXFP1) HEK293 cAMP assay described above and found to have agonist activity. Table I lists EC50 values in the hRXFP1 HEK293 cAMP assay measured for the examples.
# [1] = intravenous (IV) formulation; cited from earlier work
Compound,EC50 (human RXFP1) [nM],first-phase pharmacokinetic half-life [1] [min]
"O=C(O)c1cccc(C2CCCC(C(=O)N[C@H]3[C@@H](C(=O)Nc4ccc(F)c(C(F)(F)F)c4)[C@H]4CC[C@@H]3/C4=C\C(F)(F)F)C2)c1 (single isomer, unassigned) [Example 1]",930,–
"O=C(O)c1cccc(C2CCCC(C(=O)N[C@H]3[C@@H](C(=O)Nc4ccc(F)c(C(F)(F)F)c4)[C@H]4CC[C@@H]3/C4=C\C(F)(F)F)C2)c1 (single isomer, unassigned) [Example 2]",300,–
"O=C(O)c1cccc(C2CCCC(C(=O)N[C@H]3[C@@H](C(=O)Nc4ccc(F)c(C(F)(F)F)c4)[C@H]4CC[C@@H]3/C4=C\C(F)(F)F)C2)c1 (single isomer, unassigned) [Example 3]",510,–
"O=C(O)c1cccc(C2CCC(C(=O)N[C@H]3[C@@H](C(=O)Nc4ccc(F)c(C(F)(F)F)c4)[C@H]4CC[C@@H]3/C4=C\C(F)(F)F)C2)c1 (single isomer, unassigned) [Example 9]",510,–
"O=C(O)c1cccc(C2CCC(C(=O)NC3C4CCC(C4=CC(F)(F)F)C3C(=O)Nc3ccc(F)c(C(F)(F)F)c3)C2)c1 (single isomer, unassigned) [Example 10]",2000,–
"O=C(NC1C2CCC(/C2=C/C2CC2)[C@@H]1C(=O)Nc1ccc(F)c(C(F)(F)F)c1)C1CCC[C@H](C2=NOC3COCC23)C1 (single isomer, unassigned) [Example 12]",350,–
"O=C(N[C@@H]1C2CCC(/C2=C/C2CC2)[C@@H]1C(=O)Nc1ccc(F)c(C(F)(F)F)c1)C1CCC[C@H](C2=NOC3COCC23)C1 (single isomer, unassigned) [Example 13]",2900,–
"O=C(N[C@@H]1C2CCC(/C2=C/C2CC2)[C@@H]1C(=O)Nc1ccc(F)c(C(F)(F)F)c1)C1CCC[C@H](C2=NOC3COCC23)C1 (single isomer, unassigned) [Example 14]",1600,–
"O=C(N[C@@H]1C2CCC(/C2=C/C2CC2)[C@@H]1C(=O)Nc1ccc(F)c(C(F)(F)F)c1)C1CCC[C@H](C2=NOC3COCC23)C1 (single isomer, unassigned) [Example 15]",1400,–
"O=C(N[C@H]1[C@@H](C(=O)Nc2ccc(F)c(C(F)(F)F)c2)[C@H]2CC[C@@H]1/C2=C\C1CC1)C1CCC[C@@H](C2=NOC3COCC23)C1 (single isomer, unassigned) [Example 17]",1600,–
"O=C(N[C@H]1[C@@H](C(=O)Nc2ccc(F)c(C(F)(F)F)c2)[C@H]2CC[C@@H]1/C2=C\C1CC1)C1CCC[C@@H](C2=NOC3COCC23)C1 (single isomer, unassigned) [Example 18]",1000,–
"O=C(N[C@H]1[C@@H](C(=O)Nc2ccc(F)c(C(F)(F)F)c2)[C@H]2CC[C@@H]1/C2=C\C1CC1)C1CCC[C@@H](C2=NOC3COCC23)C1 (single isomer, unassigned) [Example 19]",2000,–
"O=C(CCCCCCCO)N[C@@H]1C2CCC(/C2=C/C2CC2)C1C(=O)Nc1ccc(F)c(C(F)(F)F)c1 (stereo in doubt) [Example 5, (1R,2R,3R,4R,Z)-7-(cyclopropylmethylene)-N-(4-fluoro-3-(trifluoromethyl)phenyl)-3-(8-hydroxyoctanamido)bicyclo [2.2.1]heptane-2-carboxamide]",1200,–
"COc1ccc(Cl)cc1NC(=O)N[C@H]1[C@@H](C(=O)Nc2ccc(F)c(C(F)(F)F)c2)[C@H]2CC[C@@H]1/C2=C\C(F)(F)F [Example 4, (1R,2S,3R,4R,Z)-3-(3-(5-chloro-2-methoxyphenyl)ureido)-N-(4-fluoro-3-(trifluoromethyl)phenyl)-7-(2,2,2-trifluoroethylidene)bicyclo[2.2.1]heptane-2-carboxamide]",3800,–
"CO[C@H](C(=O)N[C@H]1[C@@H](C(=O)Nc2ccc(F)c(C(F)(F)F)c2)[C@H]2CC[C@@H]1/C2=C\C(F)(F)F)c1ccccc1 [Example 6, (1R,2S,3R,4R,Z)-N-(4-fluoro-3-(trifluoromethyl)phenyl)-3-((S)-2-methoxy-2-phenylacetamido)-7-(2,2,2-trifluoroethylidene)bicyclo [2.2.1]heptane-2-carboxamide]",3300,–
"O=C(N[C@H]1[C@@H](C(=O)Nc2ccc(F)c(C(F)(F)F)c2)[C@H]2CC[C@@H]1/C2=C\C(F)(F)F)C(O)c1cccc(Oc2ccccc2)c1 (stereo partly drawn) [Example 7, (1R,2S,3R,4R,Z)-N-(4-fluoro-3-(trifluoromethyl)phenyl)-3-(2-hydroxy-2-(3-phenoxyphenyl)acetamido)-7-(2,2,2-trifluoroethylidene)bicyclo [2.2.1]heptane-2-carboxamide]",3400,–
"O=C(O)CCCCCCC(=O)N[C@H]1[C@@H](C(=O)Nc2ccc(F)c(C(F)(F)F)c2)[C@H]2CC[C@@H]1/C2=C\C1CC1 [Example 8, 8-(((1R,2R,3S,4R,Z)-7-(cyclopropylmethylene)-3-((4-fluoro-3-(trifluoromethyl)phenyl)carbamoyl)bicyclo[2.2.1]heptan-2-yl)amino)-8-oxooctanoic acid]",4700,–
O=C(O)c1cccc(C2CCC(C(=O)N[C@H]3[C@@H](C(=O)Nc4ccc(F)c(C(F)(F)F)c4)[C@H]4CC[C@@H]3/C4=C\C(F)(F)F)CC2)c1 (some centres unmarked) [Example 11],4300,–
"O=C(N[C@H]1[C@@H](C(=O)Nc2ccc(F)c(C(F)(F)F)c2)[C@H]2CC[C@@H]1/C2=C\C1CC1)C1CCC[C@@H](C2=NOC3COCC23)C1 (stereo partly drawn) [Example 16, (1R,2S,3R,4R,7Z)-3-[(3R)-3-{3aH,4H,6H,6aH-furo[3,4-d][1,2]oxazol-3-yl}cyclohexaneamido]-7-(cyclopropylmethylidene)-N-[4-fluoro-3-(trifluoromethyl)phenyl]bicyclo [2.2.1]heptane-2-carboxamide]",1000,–
Serelaxin,–,5.4
